Among the data in PMC8022858, “Discovery of bone morphogenetic protein 7-derived peptide sequences that attenuate the human osteoarthritic chondrocyte phenotype” (Molecular Therapy. Methods & Clinical Development, 2021) are BRE reporter activity values, retold here.

The assay concerns BRE reporter (SMAD1/5/8 dependent) in SW1353 chondrocytic cells. As to the kind of experiment: BRE firefly luciferase reporter assay. The following applies: 8 h peptide exposure, firefly normalized to Gaussia luciferase, relative to control (Figure 5B). The class given is cell-based. The procedure:
Figure 5 Molecular characterization of peptides p[63−82] and p[113−132] (A) A pool of OA-HACs (n = 4 donors) was transfected with a scrambled siRNA or with an NKX3-2 siRNA (100 nM siRNA) and cultured for 24 h. Cultures were then exposed to peptide p[63−82] or p[113−132] (100 nM peptide). Samples were harvested 24 h later and analyzed for the expression of the indicated mRNAs (normalized to 28S rRNA). (B) SW1353 chondrocytic cells were transfected with BRE (SMAD1/5/8 reporter) or CAGA12 (SMAD2/3 reporter) firefly luciferase-reporter plasmids. A CMV-Gaussia plasmid was cotransfected as a transfection control. Cells were then cultured for 24 h and subsequently exposed to control, p[63−82], or p[113−132] for 8 h. Firefly and Gaussia bioluminescence were measured in cells and medium (respectively), and relative light units (RLUs) of firefly luciferase were normalized for the Gaussia luciferase signal. The normalized firefly luciferase signal of the control condition was set at 1, and peptide conditions were calculated relative to the control condition (FL/GL). Error bars represent mean ± SEM; statistical significance for peptide conditions versus siScrambled or siNKX3-2 (A) or control condition (B) as determined by unpaired two-tailed Student’s t test is represented as ∗p < 0.05, ∗∗p < 0.01, and ∗∗∗p < 0.001. […]

Turning to H-AAYYSEGESAFPLNSYMNAT-OH [p[63−82]], the BRE reporter activity entry is reported as “induce”. Turning to H-SVLYFDDSSNVILKKYRNMV-OH [p[113−132]], the BRE reporter activity result is “induce”.
